Experimental data: the NIST ThermoML archive (doi:10.1016/j.jct.2012.06.012)

Experiment: xn = mol fraction of the nth substance listed
Settings: Liquid, Vibrating tube method

CCCCCCCCCC [decane] + CCO
mass density [kg/m3]
Settings	x2 = 0.0937	x2 = 0.1011	x2 = 0.4963	x2 = 0.7526	x2 = 0.9014
342.81 K, 1000 kPa	691.26	691.32	698.84	–	–
342.81 K, 2000 kPa	692.32	692.38	699.92	–	–
342.81 K, 3000 kPa	693.37	693.43	700.98	–	–
342.81 K, 4000 kPa	694.4	694.46	702.03	–	–
342.81 K, 5000 kPa	695.42	695.48	703.09	–	–
342.81 K, 6000 kPa	696.42	696.48	704.13	–	–
342.81 K, 7000 kPa	697.41	697.47	705.18	–	–
342.81 K, 8000 kPa	698.4	698.46	706.22	–	–
342.81 K, 9000 kPa	699.37	699.44	707.25	–	–
342.81 K, 10000 kPa	700.35	700.42	708.27	–	–
342.81 K, 11000 kPa	701.32	701.38	709.28	–	–
342.81 K, 12000 kPa	702.28	702.33	710.29	–	–
342.81 K, 13000 kPa	703.21	703.27	711.26	–	–
342.81 K, 14000 kPa	704.14	704.2	712.23	–	–
342.81 K, 15000 kPa	705.06	705.12	713.19	–	–
342.81 K, 16000 kPa	705.95	706.02	714.13	–	–
342.81 K, 17000 kPa	706.83	706.9	715.07	–	–
342.81 K, 18000 kPa	707.7	707.77	715.97	–	–
342.81 K, 19000 kPa	708.56	708.63	716.86	–	–
342.81 K, 20000 kPa	709.39	709.45	717.73	–	–
342.86 K, 1000 kPa	–	–	–	711.77	726.79
342.86 K, 2000 kPa	–	–	–	712.88	727.93
342.86 K, 3000 kPa	–	–	–	713.97	729.05
342.86 K, 4000 kPa	–	–	–	715.06	730.15
342.86 K, 5000 kPa	–	–	–	716.15	731.27
342.86 K, 6000 kPa	–	–	–	717.23	732.36
342.86 K, 7000 kPa	–	–	–	718.31	733.45
342.86 K, 8000 kPa	–	–	–	719.38	734.54
342.86 K, 9000 kPa	–	–	–	720.44	735.62
342.86 K, 10000 kPa	–	–	–	721.49	736.69
342.86 K, 11000 kPa	–	–	–	722.54	737.75
342.86 K, 12000 kPa	–	–	–	723.57	738.79
342.86 K, 13000 kPa	–	–	–	724.58	739.82
342.86 K, 14000 kPa	–	–	–	725.59	740.84
342.86 K, 15000 kPa	–	–	–	726.57	741.84
